Assay results as given in patent US12703693B2, “Crystalline forms of N-{3-[(1S)-1-{[6-(3,4-dimethoxyphenyl)pyrazin-2-yl]amino}ethyl]phenyl}-5-methylpyridine-3-carboxamide and related products and methods” (GB002, INC., priority 2021, dated 2026).
Converted amounts (≈) assume the structure as drawn. “And” between values parts separate entries of the source, which are not always exact repeats. Identical values can stand only once. Marks after values point to notes of the source that are not given here.

How the values were obtained:
[1] = Solvent solubility of amorphous Compound 1 (solvent aliquot addition); assay type: physicochemical; details: thermodynamic from solid
Method: Test solvent/solvent system (50 μL) was added to the vial and the mixture assessed for dissolution. If no dissolution was apparent, the mixture was heated to ca. 40° C. and reassessed; if dissolution was still incomplete, the cycle was repeated and an additional 50 μL of solvent added. After 300 μL of solvent had been added, 100 μL aliquots were added. This procedure was continued until complete dissolution was observed or until 1 mL of solvent had been added.

[2] = Fragility and relaxation time (Tg vs heating rate by DSC); assay type: physicochemical; details: 25° C.; calculated from fragility parameters (γ=0.9, τ0=10^−14 s)
Method: Fragility and relaxation time parameters were determined by measuring Tg as a function of heating rate. Four heating rates were used: 1, 5, 10 and 20° C./min. DSC measurements were made by: • (1) heating at 10° C./min to 100° C.; • (2) isothermal hold for 5 min; • (3) cooling at 10° C./min to −20° C.; • (4) isothermal hold for 5 min; and • (5) heating at 10° C./min to 130° C.
The slope was used to calculate the activation enthalpy (ΔH*), from which the fragility parameters m, D and T0 were calculated, according to the following equations:
Using the fragility parameters, the initial structural relaxation time was calculated according to the following formula, (using γ=0.9 and τ0=10^−14 s) and determined to be 3 months at 25° C.

[3] = Particle size distribution (PSD) of micronized / spray dried material; assay type: physicochemical
Excerpt: Crystalline Compound 1 Form A was fed into a grinding chamber tangentially by vacuum created by the venturi system using pressurized nitrogen (venturi pressure, Pvent, above grind pressure, Pgrind). Compressed nitrogen was also used for the jet nozzles in the walls of the chamber. The feed flow rate was set and controlled automatically (by a gravimetric feeder) or manually. Once inside the milling chamber particles were accelerated by a series of perimeter jets, in a spiral movement. The compressed fluid issuing from the nozzles expands from Pgrind and imparts very high rotational speeds in the chamber. The micronizing effect occurs when the slower incoming particles and the faster particles in the spiral path collide. While centrifugal force retains the larger particles at the periphery of the milling chamber, the smaller particles exit with the exhaust gas from the center of the chamber. Five 20 g trials were performed in a 1.5″ jet mill, under varying feed rates (Ffeed,JM,) and pressures; the optimal conditions were used for a sixth larger scale 50 g trial.
Aqueous suspensions of crystalline Compound 1 Form A in water (5% w/w or 10% w/w) were processed via microfluidization with a HPH18 (M-110EH-30 Microfluidics Pilot) wet milling apparatus equipped with an auxiliary processing module (200 μm) and an interaction chamber (Z-shape, 100 μm). The unit was initiated at a given pressure for the first five cycles to perform a pre-milling of the suspension, using only the auxiliary processing module (200 μm). The interaction chamber (100 μm) was then introduced and the suspension processed at a defined pressure. The temperature was controlled, using a reactor jacket, and recorded. To address clogging of the micronization chambers (observed after ~25 cycles), the pressure was increased from 25 to 60 bar.
The material isolated from the first run 1A, was dived into three (1BI, 1BII and 1BIII); runs 2A and 3A were spray dried to produce samples 2B and 3B, respectively. […] Runs 2B and 3B were additionally characterized for specific surface area (SSA). See Table 27 (runs 1BI, 1BII and 1BIII) and Table 28 (runs 2B and 3B) for conditions and product characterization. […]
Two 250 g batches of crystalline Compound 1 Form A were each suspended in water (5 L) and wet polished in a wet milling HPH18 (M-110EH-30 Microfluidics Pilot) apparatus, equipped with an auxiliary processing module (200 μm) and an interaction chamber (Z-shape, 100 μm). The unit was initiated at 50 bar for the first five cycles to perform a pre-milling of the suspension, using only the auxiliary processing module (200 μm). The interaction chamber (100 μm) was then introduced and the suspension processed at 50 bar (increased to 60 or 70 bar if the system clogged). The temperature was maintained at 18-28° C. using a reactor jacket. The Reactor agitation speed was 280 RPM (batch 1) and 390 RPM (batch 2). The first batch was micronized for 25 cycles and particle size distribution analyzed after 5, 15 and 20 cycles; the second batch was micronized for […] and particle size distribution analyzed after 15, 20, 25 and 35 cycles.
Both batches were then spray dried (separately) using a Büchi spray dryer, using an open loop system. The unit was equipped with a two-fluid nozzle: cap and orifice diameters of 1.5 and 0.7 mm, respectively operated with nitrogen. The aspirator, blowing nitrogen, was set at 100% capacity (~40 kg/h). The suspension feed flow was set to 8 ml/min, high and the drying outlet temperature to 75±1° C. […] Total yield (both batches combined) was 267 g (53%).
Two 250 g batches (250 g and 238 g; 488 g total) of crystalline Compound 1 Form A coated with ~2% L-leucine were each suspended in water (5 L) and wet polished in a wet milling HPH18 (M-110EH-30 Microfluidics Pilot) apparatus, under the same process as described in the previous example. The first batch was micronized for 25 cycles and the second for 30 cycles. […]

[4] = Product characterization of micronized / spray dried powder (XRPD, amorphous content, water content by KF, assay and related substances, SSA); assay type: physicochemical; details: final product, Compound 1 alone, wet polished and spray dried
Excerpt: The final spray dried product was characterized for assay and related substances, PSD, water content by KF and XRPD and the results shown in Table 43. The two sub-batches were blended to obtain the final product, with a total final yield was 137 g (68%), see Table 44.

[5] = as above; assay type: physicochemical
[6] = Solubility in ethanol/water mixtures
Method: (§1) Phosphate Buffer contained NaH2PO4·H2O (0.345 g), sodium hydroxide aqueous solution (0.2M, 10.001 mL), sodium chloride (0.576 g) and water (qs ad 100.0 mL); • Ethanol/Water (30/70) contained Ethanol (30.0 g) and Water (70.0 g); • Ethanol/Water (40/60) contained Ethanol (40.0 g) and Water (60.0 g); • Ethanol/Water (50/50) contained Ethanol (50.0 g) and Water (50.0 g); and • Ethanol/Water (45/55) contained Ethanol (4.50 g) and Water (5.51 g).

[7] = Solubility in 25 mM phosphate buffer pH 7.4
Method: as §1

[8] = Sample stress, 40° C. and 75% relative humidity, XRPD; assay type: physicochemical; details: open vial, 6 days
Method: Two samples, one containing pure crystalline Form A of Compound 1 and a second containing a mixture of crystalline Forms A and B of Compound 1 were placed in an open vial at 40° C. and 75% relative humidity for 6 days and then analyzed by XRPD. The results are presented in Table 11; no changes by XRPD were observed.

[9] = Solubility in ethyl acetate and ethyl acetate+2% water (Crystal16 parallel crystallizer); assay type: physicochemical
Method: The solubility of crystalline Forms A and B of Compound 1 in ethyl acetate was determined using a Crystal16® parallel crystallizer. Two heating rates were used, 1° C./min and 0.5° C./min. The suspensions were heated to 78° C. and cooled to 10° C. at 0.2° C./min and maintained for 2 h at 10° C. […] The suspensions were heated to 78° C. at 1° C./min, cooled to 10° C. at 0.2° C./min and maintained for 2 h at 10° C. FIG. 15 compares the resulting solubility curve with the pure ethyl acetate.

[10] = Compound 1 alone, spray dried, individual batch analyses, cyclone 1
[11] = Compound 1 alone, spray dried, individual batch analyses, cyclone 2
[12] = final product, Compound 1 alone, wet polished and spray dried
[13] = jet milled crystalline Compound 1 Form A, label = jet mill run
[14] = EtOH/H2O (w:w) 50:50, top layer after centrifugation, 22° C.

COc1ccc(-c2cncc(N[C@@H](C)c3cccc(NC(=O)c4cncc(C)c4)c3)n2)cc1OC [Amorphous Compound 1, N-{3-[(1S)-1-{[6-(3,4-dimethoxyphenyl)pyrazin-2-yl]amino}ethyl]phenyl}-5-methylpyridine-3-carboxamide]
solubility ([1]; 2-propanol, organic solvent or mixture): ≥ 200 mg/mL
solubility ([1]; EtOAc/tBME (75:25% v/v), organic solvent or mixture): ≥ 200 mg/mL
solubility ([1]; acetone, organic solvent or mixture): ≥ 200 mg/mL
solubility ([1]; acetonitrile, organic solvent or mixture): ≥ 200 mg/mL
solubility ([1]; chloroform, organic solvent or mixture): ≥ 200 mg/mL
solubility ([1]; ethanol, organic solvent or mixture): ≥ 200 mg/mL
solubility ([1]; ethanol/water (95:5% v/v), organic solvent or mixture): ≥ 200 mg/mL
solubility ([1]; ethyl acetate, organic solvent or mixture): ≥ 200 mg/mL
solubility ([1]; heptane, organic solvent or mixture): < 10 mg/mL
solubility ([1]; methanol, organic solvent or mixture): ≥ 200 mg/mL
solubility ([1]; methyl ethyl ketone, organic solvent or mixture): ≥ 200 mg/mL
solubility ([1]; organic solvent or mixture, EtOAc/tBME (25:75% v/v), sample heated to 40° C.): ~12.5 mg/mL (≈ 26.6 mM)
solubility ([1]; organic solvent or mixture, EtOAc/tBME (50:50% v/v), sample heated to 40° C.): ~100 mg/mL (≈ 213 mM)
solubility ([1]; tert-butyl methyl ether, organic solvent or mixture): < 10 mg/mL
solubility ([1]; tetrahydrofuran, organic solvent or mixture): ≥ 200 mg/mL
solubility ([1]; toluene, organic solvent or mixture): < 10 mg/mL
solubility ([1]; water): < 10 mg/mL
initial structural relaxation time [2]: 3 months

COc1ccc(-c2cncc(N[C@@H](C)c3cccc(NC(=O)c4cncc(C)c4)c3)n2)cc1OC [Compound 1, N-{3-[(1S)-1-{[6-(3,4-dimethoxyphenyl)pyrazin-2-yl]amino}ethyl]phenyl}-5-methylpyridine-3-carboxamide]
Dv10 [3, 10]: 0.1 μm and 0.3 μm
Dv50 [3, 10]: 0.4 μm and 0.5 μm
Dv90 [3, 10]: 3.1 μm and 1.5 μm
SPAN [3, 10]: 7.2 and 2.1
Dv10 [3, 11]: 0.1 μm and 0.3 μm
Dv50 [3, 11]: 0.4 μm and 0.5 μm
Dv90 [3, 11]: 2.9 μm and 1.4 μm
SPAN [3, 11]: 7.9 and 2.0
Dv10 [3, 12]: 0.3 μm
Dv50 [3, 12]: 0.6 μm
Dv90 [3, 12]: 3.3 μm
SPAN [3, 12]: 4.7
Dv10 [3, 13]: 0.4 μm
Dv50 [3, 13]: 1.2 μm
Dv90 [3, 13]: 2.8 μm
SPAN [3, 13]: 2.0
Bulk density [4]: 0.10 g/mL
KF (water content) [4]: 0.3 % w/w
XRPD [4]: Form A
Amorphous content by DSC [5, 12]: <10 % w/w
Amorphous content by DSC [5, 13]: 46 % w/w
Assay [5, 13]: 97.70 % LC
Impurities [5, 13]: 1.10 % area
Water content KF [5, 13]: 1.4 % w/w
XRPD [5, 13]: P + A
Specific Surface Area by BET ([5]; jet milled crystalline Compound 1 Form A, label = jet mill run, in m2/g (unit assumed)): 10.35

COc1ccc(-c2cncc(N[C@@H](C)c3cccc(NC(=O)c4cncc(C)c4)c3)n2)cc1OC [Crystalline]
Solubility 4 Hours ([6]; EtOH/H2O (w:w) 40:60, 22° C.): 18.9 mg/mL (≈ 40.3 mM)
Solubility 24 Hours ([6]; EtOH/H2O (w:w) 40:60, 22° C.): 18.3 mg/mL (≈ 39 mM)
Solubility Average ([6]; EtOH/H2O (w:w) 40:60, 22° C.): 18.6 mg/mL (≈ 39.6 mM)
Solubility 4 Hours ([6]; EtOH/H2O (w:w) 45:55, 22° C.): 53.3 mg/mL (≈ 114 mM)
Solubility 24 Hours ([6]; EtOH/H2O (w:w) 45:55, 22° C.): 43.3 mg/mL (≈ 92.2 mM)
Solubility Average ([6]; EtOH/H2O (w:w) 45:55, 22° C.): 48.3 mg/mL (≈ 103 mM)
Solubility 4 Hours ([6]; EtOH/H2O (w:w) 50:50, bottom layer after centrifugation, 22° C.): 222 mg/mL (≈ 473 mM)
Solubility 24 Hours ([6]; EtOH/H2O (w:w) 50:50, bottom layer after centrifugation, 22° C., result outside calibration curve): 362* mg/mL
Solubility 4 Hours [6, 14]: 125 mg/mL (≈ 266 mM)
Solubility 24 Hours [6, 14]: 177 mg/mL (≈ 377 mM)
solubility ([7]; 25 mM phosphate buffer pH 7.4, equil time 4 hrs): 0.00316 mg/mL (≈ 0.00673 mM)
solubility ([7]; 25 mM phosphate buffer pH 7.4, equil time 24 hrs): 0.00305 mg/mL (≈ 0.0065 mM)

COc1ccc(-c2cncc(N[C@@H](C)c3cccc(NC(=O)c4cncc(C)c4)c3)n2)cc1OC [Form A + form B (minor)]
XRPD observation after stress conditions [8]: No change - Form A +

COc1ccc(-c2cncc(N[C@@H](C)c3cccc(NC(=O)c4cncc(C)c4)c3)n2)cc1OC [Form B, N-{3-[(1S)-1-{[6-(3,4-dimethoxyphenyl)pyrazin-2-yl]amino}ethyl]phenyl}-5-methylpyridine-3-carboxamide]
solubility compared with the other crystalline form ([9]; ethyl acetate and ethyl acetate+2% water (both systems)): slightly less soluble
solubility in ethyl acetate+2% water compared to pure ethyl acetate ([9]; presence of water (2%)): significantly more soluble
